The values that follow come from patent US20240409647A1, “BISPECIFIC BINDING PROTEINS AGAINST ALARMINS AND USES THEREOF” (SINOMAB BIOSCIENCE LIMITED, priority 2022, published 2024).

Assay [1] deals with T1, hIL17RE (Homo sapiens, UniProt Q8NFR9).
T1 construct: purchased R&D systems
T1 sequence (Q8NFR9 24-667): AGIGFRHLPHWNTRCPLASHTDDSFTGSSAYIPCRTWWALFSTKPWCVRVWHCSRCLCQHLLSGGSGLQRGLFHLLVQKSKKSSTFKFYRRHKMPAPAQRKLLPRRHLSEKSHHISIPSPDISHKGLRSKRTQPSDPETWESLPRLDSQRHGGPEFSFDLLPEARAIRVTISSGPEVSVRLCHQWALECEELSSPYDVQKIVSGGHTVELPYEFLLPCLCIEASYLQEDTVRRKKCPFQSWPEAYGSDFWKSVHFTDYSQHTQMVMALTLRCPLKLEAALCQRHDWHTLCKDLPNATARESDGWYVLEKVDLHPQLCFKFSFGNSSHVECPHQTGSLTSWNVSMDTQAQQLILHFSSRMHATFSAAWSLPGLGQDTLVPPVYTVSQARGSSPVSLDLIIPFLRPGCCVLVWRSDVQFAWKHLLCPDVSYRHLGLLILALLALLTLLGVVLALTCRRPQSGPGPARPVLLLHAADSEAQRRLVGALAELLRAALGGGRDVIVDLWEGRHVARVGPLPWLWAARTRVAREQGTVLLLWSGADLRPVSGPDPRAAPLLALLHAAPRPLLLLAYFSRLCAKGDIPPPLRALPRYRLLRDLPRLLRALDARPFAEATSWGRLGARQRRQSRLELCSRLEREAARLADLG
The assay is described as follows: ELISA, SM17 specificity against IL-17 receptor subunits (IL17RE). Particulars: 0.4 to 0.00064 μg/mL. The assay is classed as binding. The procedure: A standard ELISA method was used to determine the specificity of SM17 against other human IL17 receptor subunits. Similarly, serially diluted SM17 at different concentrations (final concentrations at 0.4, 0.08, 0.016, 0.0032 and 0.00064 μg/m, respectively) was added to the wells of ELISA plates coated either with human IL-17 receptor subunits A, C, D and E (IL17RA, IL17RC, IL17RD, and IL17RE) (R&D systems).

Assay [2] deals with wild type HEK293. Put plainly: Flow cytometry, SM17 binding to wild type HEK293. As to conditions: SM17 1 μg/ml. As to the method: HEK293 cells (ATCC, Manassas, VA) transfected either with full-length human or rhesus monkey IL-17RB (SinoBiological, Beijing, China) were examined for binding to SM17 following standard protocol for flow cytometry. Wild-type HEK293 stained with IgG4 isotype control (Sino Biological) was used as the negative control and for gating purpose. Briefly, HEK293 cells at a density of 3×10^5 cells were seeded into each well of a 6-well plate. On the next day, human or rhesus Il-17RB full length cDNA were first cloned into pCMV3-untagged expression plasmid through standard molecular cloning technique, and then expression plasmids for human or rhesus IL-17RB were transfected into HEK293 cells by lipofection (Lipofectamine 3000 reagent; Thermo Fisher Scientific). Transfected cells were trypsinized, harvested, and fixed with 4% paraformaldehyde (5 minutes). SM17, or human IgG4 control at 1 μg/ml in washing buffer (3% BSA in PBS) were added to the resuspend cells for incubation at RT for 30 min before Alexa Fluor® 647-conjugated goat anti-human IgG specific antibody (1:2000 dilution in washing buffer) (Jackson ImmunoResearch) was added for flow cytometry analysis using the BD FACSVerse cell analyzer (Becton Dickenson, Franklin Lakes, NJ).

The test system of assay [3] is IL-2/IL-25-treated human PBMC. Put plainly: IL-5 release from IL-2/IL-25-treated human PBMC. The format is cell-based. Particulars: SM17 0.16 ng/mL to 5 mg/mL; 10 unit/mL IL-2, 10 μg/mL IL-25; 72 hours; dose dependent. The procedure:
PBMC (Ixcells, San Diego, CA) co-cultured with IL-2 and IL-25 (PeproTech, Cranbury, NJ) can lead to the release of IL-5, a cytokine known to exacerbate the conditions of asthma. Accordingly, the inhibitory effect of SM17 on IL-5 release from IL-2/IL-25-treated human PBMC was evaluated. Briefly, cryopreserved human PBMC were thawed and cultured in RPMI-1640 medium supplemented with 10% Fetal Bovine Serum (Thermo Fisher Scientific). Serially diluted SM17 at concentrations ranging from 0.16 ng/mL to 5 mg/mL were added to 4×10^5 of human PBMC in the presence of 10 unit/mL of IL-2 and 10 μg/mL of IL-25. Non-specific human IgG4 (SinoBiological) was used as the control antibody. Treated cells were incubated for 72 hours at 37° C., and the level of IL-5 release in the culture supernatant was measured by standard ELISA assay (R&D systems). […] Results are presented as means±SEM. One Way ANOVA, Dunnett's Multiple Comparison Test, *: P<0.05; **: P<0.01.

For assay [4], the system named is Human renal carcinoma cell line TK-10. Put plainly: IL-8 release from IL-25/TNFa-treated TK-10 cells. The assay is classed as cell-based. As to conditions: 1 mg/mL; 100 ng/mL IL-25, 10 ng/mL TNFa; 24 or 48 hours. As to the method:
Human renal carcinoma cell line TK-10 (NCI-60, NIH, Bethesda, MD) treated with human IL-25 (PeproTech) and TNFa (R&D systems) can lead to the release of IL-8, also known as neutrophil chemotactic factor, an important mediator of the immune reaction in the innate immune system response. Accordingly, the inhibitory effects of SM17 and its murine counterpart (D9.2) on IL-8 release from IL-25/TNFa-treated TK-10 cells was evaluated. Briefly, SM17 (human IgG4 isotype, SinoMab BioScience Limited, Hong Kong, China), SM17-IgG1 (human IgG1 isotype, SinoMab BioScience Limited) and its murine counterpart (D9.2, SinoMab BioScience Limited) at a concentration of 1 mg/mL were added to 2×10^4 of TK-10 cells in the presence of 100 ng/mL of IL-25 and 10 ng/mL of TNFa. Non-specific human IgG1 (SM03, anti-CD22 chimeric antibody, SinoMab BioScience Limited) was used as the control antibody. Treated cells were cultured in OptiMEM (Thermo Fisher Scientific) for 24 or 48 hours at 37° C., and the level of IL-8 release in the culture supernatant was measured by standard ELISA assay using a commercial kit (R&D systems).

In assay [5] the target is T2, TSLP (Homo sapiens, UniProt Q969D9).
T2 construct: purchased R&D systems
The assay is described as follows: ELISA, antigen binding specificity of bsBp (TSLP). On the set-up: key: −: no binding; +: weak; ++: moderate; +++: strong binding; N/A refers to no binding affinity. Particulars: 33.5 nM; antigen coated at 2 μg/mL. As to the method:
Binding specificities of bsBp were evaluated by standard ELISA assays. Briefly, ELISA strips were coated with the respective target antigens, including IL17RB, IL-33, or TSLP (R&D systems) at a final concentration of 2 μg/mL. Bispecific antibodies were added at 33.5 nM to ELISA strips coated with the desired antigen. After incubation under room temperature for 2 hours, ELISA strips were washed five times with PBS. […] No result is provided for SM17-human TSLPR as the yield was too low to be detected.
Background: An ELISA detects its analyte on a solid surface through an enzyme-linked reagent.

Turning to “SM17: humanized anti-IL17RB monoclonal antibody, human IgG4 isotype; HC SEQ ID NO: 32, LC SEQ ID NO: 33”, the “binding of SM17 to IL17RE (in words)” value in assay [1] was “No obvious bindings”. The “binding of SM17 to wild type HEK293” value in assay [2] is recorded as around 7%. Moreover, in assay [3], the “release of IL-5 from human PBMC induced with IL-2 and IL-25 (in words)” value is “suppressed the release of IL-5”. The “release of IL-8 by IL-25/TNFa-induced TK-10 cells (in words)” value in assay [4] is on record as “efficiently suppress the release of IL-8”. Besides, the “Intensity of specific antigen binding, TSLP coated on ELISA strips” value in assay [5] is “+”.
